Measurements: patent publication EP4692059A1, “CATIONIC LIPID HAVING DISULFIDE BOND” (Tohoku University, priority 2023, dated 2024)

How the values were obtained:
[1] = Particle size, PdI and zeta potential of mRNA-encapsulating LNPs by dynamic light scattering (Experimental Example 6); assay type: physicochemical; conditions: mRNA-encapsulating LNP; for zeta potential (mV): cationic lipid:DOPC:Chol=49:7.5:42.5:1, dispersion in TBS (Tables 8-1, 8-2); for PdI / particle size (nm): cationic lipid:DOPC:Chol=49:7.5:42.5:1, dispersion in TBS, dynamic light scattering (Tables 8-1, 8-2)
Procedure: An acidic buffer solution (total amount: 1300 µL) of nucleic acid was prepared by weighing 6.5 µg of mRNA solution (0.6 mg/mL) in a 5 mL tube and adding acidic citrate buffer (20 mM, pH 5.0).
An acidic buffer solution of nucleic acid and an ethanol solution of lipid were each weighed in a syringe. […] The obtained concentrate was diluted with TBS to a lipid concentration of 2 mM to give a dispersion containing LNP.
The particle size, PdI (Polydispersity Index), and zeta potential of the mRNA-encapsulating LNP prepared by the method of the above-mentioned 1 were measured by a dynamic light scattering method (Zetasizer Nano; Malvern). […]

liver [2] = experiment: In vivo gene expression, luciferase luminescence in the liver after tail vein administration (Experimental Example 7); conditions: BALB/c mouse, mRNA 0.05 mg/kg; for amount of luminescence (photons/sec) in liver: tail vein, 4.5 hr after administration, LNP cationic lipid:DOPC:Chol:DMG-PEG2k = 52.5:7.5:40:1.5, prepared as in Experimental Example 6; for relative amount of luminescence: liver luminescence relative to cationic lipid of Comparative Example
Procedure: LNP encapsulating mRNA that expresses luciferase (cationic lipid:DOPC:Chol:DMG-PEG2k = 52.5:7.5:40:1.5 (molar ratio)) was prepared by the method described in [Experimental Example 6], 1.
(§1) The prepared each mRNA-encapsulating LNP dispersion was administered from the tail vein of BALB/c mouse (male, 5-week-old). The dose of mRNA was set to 0.05 mg per 1 kg body weight of the mouse, and the dose of the mRNA-encapsulating LNP dispersion was set to 10 µL per 1 g body weight of the mouse. After 4.5 hr from the administration of the mRNA-encapsulating LNP dispersion, a PBS solution of D-luciferin potassium was administered into the abdominal cavity of the mouse. The dose of D-luciferin potassium was set to 3 mg per mouse, and the dose of the PBS solution of D-luciferin potassium was set to 200 µL per mouse. After 15 min from the administration of the PBS solution of D-luciferin potassium, the mouse was euthanized, and the liver was isolated. The luminescence in the liver was quantified using an in vivo imaging system (IVIS) with an exposure of 10 sec. The amount of luminescence in the liver was quantified by image analysis using Live Imaging software attached to IVIS. The amount of luminescence (photons/sec) was calculated from the acquired image and used as an index of gene expression activity. The cationic lipids used, the luminescence intensity in the liver, and the relative luminescence intensity (= luminescence intensity in the liver when cationic lipid of Example was used/luminescence intensity in the liver when cationic lipid of Comparative Example was used) are shown in Table 9. For example, "3.94E+09" means "3.94×10^9". […]

[3] = Particle size, PdI and zeta potential of mRNA-encapsulating LNPs by dynamic light scattering (Experimental Example 2); assay type: physicochemical; conditions: mRNA-encapsulating LNP containing the cationic lipid; for zeta potential (mV): dispersion in PBS (Table 5-3); for PdI / particle size (nm): dispersion in PBS, dynamic light scattering (Table 5-3)
Procedure: An acidic buffer solution (total amount: 1080 µL) of nucleic acid was prepared by weighing 7.2 µg of mRNA solution (0.6 mg/mL) in a 5 mL tube and adding acidic malate buffer (20 mM, pH 3.0).
An acidic buffer solution of nucleic acid and an ethanol solution of lipid were each weighed in a syringe.
The particle size, PdI (Polydispersity Index), and zeta potential of the mRNA-encapsulating LNP prepared by the method of the above-mentioned 1 were measured by a dynamic light scattering method (Zetasizer Nano; Malvern).

mouse red blood cells = experiment: Hemolysis activity (membrane fusion ability) at pH 7.4 and 5.5 (Experimental Example 8); assay type: cell-based, ICR mice
Procedure: LNP encapsulating mRNA that expresses luciferase (cationic lipid:DOPC:Chol:DMG-PEG2k = 52.5:7.5:40:1.5 (molar ratio)) was prepared by the method described in […], 1. As cationic lipid, the cationic lipid of Comparative Example, compound 94, compound 112, compound 162, compound 181, or compound 194 was used.
The collected blood was immediately mixed with 1.0 µL of heparin solution (5000 U/5 mL). About 9 mL of PBS was added to the blood to make the total volume 10 mL. The mixture was then mixed by inversion and centrifuged (4°C, 400 g, 10 min). The supernatant containing plasma components was removed using a Pasteur pipette. About 9 mL of PBS was added to the blood cell components to make the total volume 10 mL, and the mixture was centrifuged again. A similar washing procedure was repeated 4 times to obtain mouse red blood cells.
2, 4, 6, 8, and 10 µL of mouse red blood cells were weighed and diluted with PBS containing 1 w/v% Triton-X100. The entire diluted solution was transferred to a clear 96-well plate, and the absorbance at 545 nm was measured using a plate reader. A calibration curve was created using these samples, and the point where the absorbance reached 1 was determined as the amount of blood cells to be used in the hemolysis assay. Empty LNP solution was weighed into an Eppendorf tube and diluted with malic acid-PBS buffer (pH 5.5, pH 7.4), followed by addition of mouse red blood cells. The final lipid concentration was 100 µM at pH 7.4 and 33.3 µM at pH 5.5, and the final volume of the solution was 250 µL. Each tube was shaken at 1900 rpm for 15 min. Each sample was centrifuged under centrifugation conditions (4°C, 400 g, 5 min), and 100 µL of the supernatant was transferred to a clear 96-well plate and the absorbance at 545 nm was measured. Untreated red blood cells were used as the negative control. 1 w/v% Triton-X was used as the positive control. The hemolysis activity of each sample was calculated using the following formula: Hemolysis activity (%) = 100×(absorbance of each sample - absorbance of negative control)/(absorbance of positive control - absorbance of negative control).

liver [4] = experiment: In vivo gene expression, luciferase luminescence in the liver after tail vein administration (Experimental Example 4); conditions: BALB/c mouse, mRNA 0.05 mg/kg; for amount of luminescence (photons/sec) in liver: tail vein, 4.5 hr after administration, LNP cationic lipid:DOPC:Chol:DMG-PEG2k = 52.5:7.5:40:1.5, prepared as in Experimental Example 2; for relative amount of luminescence: liver luminescence relative to cationic lipid of Comparative Example
Procedure: LNP encapsulating mRNA that expresses luciferase (cationic lipid:DOPC:Chol:DMG-PEG2k = 52.5:7.5:40:1.5 (molar ratio)) was prepared by the method described in [Experimental Example 2], 1.
as §1, with “7-1 to Table 7-3. "E+0a" (a: integer) indicated in Table 7-1 to Table 7-3 means "10^a".” for “9.”

[5] = pH of the endosomal environment (5.5), final lipid concentration 33.3 µM, Fig. 4, versus LNP of Comparative Example
[6] = physiological pH (7.4), final lipid concentration 100 µM, Fig. 3

SMILES | zeta potential (mV) [1] | PdI [1] | particle size (nm) [1] | amount of luminescence (photons/sec) in liver (liver [2]) | relative amount of luminescence (liver [2]) | zeta potential (mV) [3] | PdI [3] | particle size (nm) [3] | hemolysis activity (mouse red blood cells; [5]) | hemolysis activity (mouse red blood cells; [6]) | amount of luminescence (photons/sec) in liver (liver [4]) | relative amount of luminescence (liver [4])
CCCCCCCC/C=C\CCCCCCCC(=O)Oc1ccc(CC(=O)OCCC2CCN(CCSSCCN3CCC(CCOC(=O)Cc4ccc(OC(=O)CCCC(=O)OC(CC(=O)OCCCC)(CC(=O)OCCCC)CC(=O)OCCCC)cc4)CC3)CC2)cc1 [compound 58] | -4.2 mV | 0.071 | 90.0 nm | 1.72E+10 photons/sec | 8.40 | -3.5 mV | 0.065 | 96.6 nm | – | – | – | –
CCCCCCCC/C=C\CCCCCCCC(=O)Oc1ccc(CC(=O)OCCC2CCN(CCSSCCN3CCC(CCOC(=O)Cc4ccc(OC(=O)CCCCCCCC(OC(=O)CC)C(CCCCCCCC)OC(=O)CC)cc4)CC3)CC2)cc1 (centres unmarked) [compound 94] | -4.45 mV | 0.121 | 119.7 nm | – | – | -2.40 mV | 0.048 | 88.0 nm | superior hemolysis activity compared to the LNP containing the cationic lipid of Comparative Example | none | 9.40E+09 photons/sec | 6.18
CCCCCCC(C/C=C\CCCCCCCC(=O)Oc1ccc(CC(=O)OCCC2CCN(CCSSCCN3CCC(CCOC(=O)Cc4ccc(OC(=O)CCCCCCC/C=C\CC(CCCCCC)OC(=O)c5ccc(OCC)c(OCC)c5)cc4)CC3)CC2)cc1)OC(=O)c1ccc(OCC)c(OCC)c1 (centres unmarked) [compound 173] | -4.83 mV | 0.035 | 126.1 nm | 9.37E+09 photons/sec | 4.57 | -4.4 mV | 0.070 | 99.5 nm | – | – | – | –
CCCCCCCC(=O)OC(CC=CCCCCCCCC(=O)Oc1ccc(CC(=O)OCCC2CCN(CCSSCCN3CCC(CCOC(=O)Cc4ccc(OC(=O)CCCCCCCC=CCC(CCCCCC)OC(=O)CCCCC)cc4)CC3)CC2)cc1)CCCCCC (centres unmarked) [compound 162] | -3.44 mV | 0.079 | 126 nm | – | – | -5.04 mV | 0.041 | 91.2 nm | superior hemolysis activity compared to the LNP containing the cationic lipid of Comparative Example | none | 4.43E+09 photons/sec | 2.85
CCCCCCCC/C=C\CCCCCCCC(=O)Oc1ccc(CC(=O)OCCC2CCN(CCSSCCN3CCC(CCOC(=O)Cc4ccc(OC(=O)CCCCCCC/C=C\CC(CCCCCC)OC(=O)C(CC)CCCC)cc4)CC3)CC2)cc1 (centres unmarked) [compound 166] | -2.99 mV | 0.09 | 130.5 nm | 8.49E+09 photons/sec | 4.15 | -2.5 mV | 0.047 | 89.3 nm | – | – | – | –
